According to US8158593B2, “GPR17 modulators, method of screening and uses thereof” (Universita' degli Studi di Milano, priority 2004, dated 2012):
Read-outs that look alike come from different tables or passages of the source.

What was measured:
[1] = tested on: ischemic brain damage (MCAo); assay: Permanent middle cerebral artery occlusion (MCAo), brain infarct size by MRI; type: in vivo, rat; conditions: 400 ng/animal i.c.v. 48 and 24 h before and 10 min after MCAo
Description: Quantitative analysis of infarct size volume at 24 and 48 h after MCAo from rats receiving vehicle (C1, n=5) or Mtk (2 mg/kg intravenously, i.v., 10 min after MCAO; n=6); vehicle (C2, n=5) or AR-C (4.5 μg/animal intracerebroventricularly, i.c.v., 10 min after MCAo, n=5), vehicle (C3, n=5) or either oligo616 or scrambled-oligo (400 ng/animal, i.c.v., 48, 24 before and 10 min after MCAo, n=5). Data are expressed as percentage variation of infarct volume at 24 and 48 hours after MCAo compared to 2 h considered as 100% (§ p<0.05, # p<0.01 vs volume at 2 hr; *p <0.05, **p<0.01 vs corresponding control evaluated at the same time point). Induction of focal brain ischemia in the rat. Male Sprague-Dawley rats (Charles River) underwent permanent middle cerebral artery occlusion (MCAo) as previously described^28,29. […] AR-C was utilized here to simply test the involvement of GPR17 in brain ischemia, and, being a very polar molecule which is likely to very poorly permeate the blood brain barrier, it was administered i.c.v. Oligo-616 and oligo-scramble (400 ng in 5 μl of physiological solution) were administered i.c.v three times to each rat 48, 24 h before and 10 minutes after MCAo. Control groups received corresponding vehicle i.c.v. Magnetic Resonance Imaging analysis. […]

rat GPR17 = molecular target: T1, rat GPR17 (Rattus norvegicus, UniProt Q09QM4); assay: [35S]GTPγS binding to membranes of 1321N1 cells expressing rat GPR17; type: biochemical; conditions: for IC50: rat GPR17; for EC50: agonist, 1321N1 cells expressing rat GPR17
T1 construct: expressed in transfected cells; host or cells: 1321N1; pcDNA3.1
T1 sequence (Q09QM4 whole entry): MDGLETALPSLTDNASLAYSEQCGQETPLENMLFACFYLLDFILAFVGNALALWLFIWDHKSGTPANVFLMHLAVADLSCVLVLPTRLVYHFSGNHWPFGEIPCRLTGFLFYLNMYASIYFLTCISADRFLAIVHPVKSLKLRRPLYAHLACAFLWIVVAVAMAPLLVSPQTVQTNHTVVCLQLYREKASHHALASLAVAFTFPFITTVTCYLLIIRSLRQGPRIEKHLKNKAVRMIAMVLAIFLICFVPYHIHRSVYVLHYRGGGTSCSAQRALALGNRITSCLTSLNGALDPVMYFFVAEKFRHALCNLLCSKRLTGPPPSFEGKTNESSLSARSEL
Description: (§1) [^35S]GTPγS Binding Assay. 1321N1 cells, COS-7 and HEK-293 cells (control and transfected cells) were homogenized in 5 mM TRIS-HCl, 2 mM EDTA, pH 7.4 and centrifuged at 48000 g for 15 min at 4° C. The resulting pellets (plasma membranes) were washed in 50 mM TRIS-HCl, 10 mM MgCl2, pH 7.4 and stored at −80° C. until used. Measurement of nucleotide-stimulated [^35S]GTPγS binding to membranes of cells expressing the human or rat GPR17 receptor was performed as previously described^9-11.
(§2) To identify the endogenous ligand of GPR17, the cDNAs from human and rat GPR17 were cloned into the mammalian expression vector pcDNA3.1 and transfected in 1321N1, COS-7 and HEK-293 cells for functional characterization. GPR17 activation was assessed by testing the ability of exogenously-added ligands to increase [^35S]GTPγS binding to purified membranes obtained from transfected cells^9-11. […] The specificity of GPR17 responses were also challenged by assessing the ability of some purinergic and leukotriene receptor antagonists to counteract the increase of [^35S]GTPγS binding evoked by nucleotides and cys-LTs in 1321N1 cells expressing either the human or rat receptor. […] Because both P2Y^2,11,12 and CysLT receptors^3,13 may couple to G proteins of the Gi subfamily, to evaluate the involvement of this class of G-proteins, we preincubated 1321N1 cells expressing hGPR17 with pertussis toxin (PTX) which inactivates Gi proteins, prior to membrane preparation and [^35S]GTPγS binding.
(§3) Table 1. Potency of various ligands on [^35S]GTPγS binding to membranes obtaind from 1321N1 cells-transfected with human or rat GPR17. […] All data represent the mean of triplicate determinations from 4-9 independent experiments.

hGPR17 [2] = molecular target: T2, hGPR17 (Homo sapiens, UniProt Q13304); assay: [35S]GTPγS binding to membranes of 1321N1 cells expressing human GPR17; type: biochemical; set-up: expressed in transfected cells; host or cells: 1321N1 (A1, A5), COS-7 (A3, A6), HEK-293 (A4); pcDNA3.1; conditions: for EC50: agonist, 1321N1 cells expressing human GPR17; for effect on [35S]GTPγS binding (agonist response): tested at 10 and 50 μM, 1321N1 cells expressing hGPR17
T2 sequence (Q13304 29-367): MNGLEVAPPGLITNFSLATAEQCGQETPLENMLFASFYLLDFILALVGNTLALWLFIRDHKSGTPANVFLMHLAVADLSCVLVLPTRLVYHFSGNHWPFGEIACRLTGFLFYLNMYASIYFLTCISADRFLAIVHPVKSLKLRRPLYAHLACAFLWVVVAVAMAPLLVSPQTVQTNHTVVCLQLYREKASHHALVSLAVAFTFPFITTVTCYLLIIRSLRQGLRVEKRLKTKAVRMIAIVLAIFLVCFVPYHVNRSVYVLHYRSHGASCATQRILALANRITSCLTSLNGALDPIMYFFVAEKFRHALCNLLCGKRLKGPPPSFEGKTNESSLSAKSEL
Description: as §1, §2, §3

hGPR17 [3] = molecular target: T2, hGPR17; assay: Single cell calcium imaging in 1321N1 cells expressing hGPR17; type: cell-based; set-up: expressed in transfected cells; host or cells: 1321N1 (A1, A5), COS-7 (A3, A6), HEK-293 (A4); pcDNA3.1
From the text: (§4) Polychrome IV (TILL Photonics, Germany) was used as light source. Fura-2 and EGFP fluorescence images were collected with a PCO Super […] (Axon Instruments, Forest City, Calif.) and analyzed with the Axon Imaging Workbench 2.2 software (Axon Instruments).

hGPR17 [4] = molecular target: T2, hGPR17; assay: Single cell calcium imaging in COS-7 cells expressing hGPR17; type: cell-based; set-up: expressed in transfected cells; host or cells: COS-7 (A3, A6); pcDNA3.1
From the text: as §4, with “(e-h) The same agonists induced no responses in cells transfected with the empty plasmid. […] Polychrome” for “Polychrome”

hGPR17 [5] = molecular target: T2, hGPR17; assay: [35S]GTPγS binding, COS-7 cells expressing hGPR17; type: biochemical; set-up: expressed in transfected cells; host or cells: COS-7 (A3, A6); pcDNA3.1; conditions: COS-7 cells transfected with hGPR17
Description: as §1
To identify the endogenous ligand of GPR17, the cDNAs from human and rat GPR17 were cloned into the mammalian expression vector pcDNA3.1 and transfected in 1321N1, COS-7 and HEK-293 cells for functional characterization. GPR17 activation was assessed by testing the ability of exogenously-added ligands to increase [^35S]GTPγS binding to purified membranes obtained from transfected cells^9-11. […] The specificity of GPR17 responses were also challenged by assessing the ability of some purinergic and leukotriene receptor antagonists to counteract the increase of [^35S]GTPγS binding evoked by nucleotides and cys-LTs in 1321N1 cells expressing either the human or rat receptor. […]

rGPR17 mRNA = assay: Antisense down-regulation of rGPR17 mRNA in HEK-293 cells (RT-PCR); type: cell-based, rat; conditions: 0.3 μM, added 16 and 40 h after transfection
Description: FIG. 4.1 Target sequences of synthesized anti-sense oligonucleotides on rGPR17 mRNA. (a) The various anti-sense sequences were named based on the rat coding sequence (GenBank accession No.: AC112062); black arrows indicate beginning and ending of the coding sequences. All oligonucleotides, including the “scrambled” sequence, were designed as described in Methods. All these sequences were tested in vitro on HEK-293 cells expressing rGPR17 in order to select the most appropriate oligonucleotides to be utilized for the in vivo studies. Two typical experiments are shown in (b), one aimed at assaying oligo616, oligo241 and oligo99, and the other one aimed at assaying oligoSTART and oligoEND, all in comparison with scrambled oligo sequences run in parallel. On day 2 after plating, cells were transfected with pcDNA3.1 containing the construct encoding for rGPR17 together with the neomycin resistance gene, here utilized as a reported gene. […] Twenty-four h after the last Fugene addition, RNA was extracted from cells as described in Methods, and the transcripts for both rGPR17 and the neomycin resistance gene determined as specific RT-PCR amplification products of 1079 and 357 bp, respectively, as indicated. […]

oligo241: antisense oligonucleotide designed on the sequence of rGPR17 mRNA, SEQ ID NO: 2, unmodified (antisense GGGATCACAAGTCAGGCAC; unmodified DNA; listed as Rattus norvegicus)
evolution of brain infarct size (MRI) [1]: smaller protective effect

CSCCNc1nc(SCCC(F)(F)F)nc2c1ncn2C1OC(COP(=O)(O)OP(=O)(O)C(Cl)(Cl)P(=O)(O)O)C(O)C1O (stereo not drawn) [AR-C69931MX, N6-methylthio-ethyl-2-trifluoromethyl-ethylthio-adenosin-5′beta-methylene, γ-dichloromethylene trisphosphate]
IC50 (rat GPR17; antagonist of binding stimulated by 50 μM UDP-glucose): 0.022 ± 0.0015 nM

N6-methyl-adenosin-3′,5′-bis-phosphate [MRS 2179]
IC50 (hGPR17 [2]; antagonist of binding stimulated by 50 μM UDP-glucose, human GPR17): 508 ± 29 nM

CCCCC/C=C\C\C=C/C=C/C=C/[C@@H](SC[C@H](N)C(=O)NCC(=O)O)[C@@H](O)CCCC(=O)O [LTD, LTD4]
EC50 (hGPR17 [2]): 7.2 ± 0.3 nM
cells showing rise of [Ca2+]i (hGPR17 [3]): approximately 30%
cells showing [Ca2+]i transient (hGPR17 [4]): approximately 50%
mean calcium response ΔF340/380 (hGPR17 [4]; n=22): 0.18±0.03
EC50 (rat GPR17): 5.9 ± 0.4 nM
response in [35S]GTPγS binding (hGPR17 [5]): induced responses

PTX
inhibition of agonist-stimulated [35S]GTPγS binding (hGPR17 [2]; cells exposed to 100 ng/ml PTX for 18 h before membrane preparation, stimulated by UDP, UDP-galactose, UDP-glucose or LTD4): strongly inhibited

CC(C)(O)c1ccccc1CC[C@@H](SCC1(CC(=O)O)CC1)c1cccc(/C=C/c2ccc3ccc(Cl)cc3n2)c1 [Montelukast]
IC50 (hGPR17 [2]): 60 ± 4.3 nM

CCCCC/C=C\C\C=C/C=C/C=C/[C@@H](SC[C@H](NC(=O)CC[C@H](N)C(=O)O)C(=O)NCC(=O)O)[C@@H](O)CCCC(=O)O [LTC, LTC4]
EC50 (hGPR17 [2]): 0.33 ± 0.011 nM
EC50 (rat GPR17): 65 ± 4.2 nM
response in [35S]GTPγS binding (hGPR17 [5]): induced responses

O=C(Nc1cccc2c(=O)cc(-c3nnn[nH]3)oc12)c1ccc(OCCCCc2ccccc2)cc1 [Pranlukast]
IC50 (hGPR17 [2]; antagonist of activation induced by 100 nM LTD4, human GPR17): 10.5 ± 1.2 nM
IC50 (rat GPR17; antagonist of activation induced by 100 nM LTD4): 31 ± 2.4 nM

Nc1ncnc2c1ncn2[C@@H]1O[C@H](COP(=O)(O)OP(=O)(O)OP(=O)(O)O)[C@@H](O)[C@H]1O [ATP]
effect on [35S]GTPγS binding (agonist response) (hGPR17 [2]): No other nucleotides or nucleosides (i.e., ATP, ADP, 2-methyl-thio-ADP, UTP, α,βmethylenATP and guanosine, all tested at 10 and 50 μM concentrations) had any effect

Nc1ncnc2c1ncn2[C@@H]1O[C@H](COP(=O)(O)CP(=O)(O)OP(=O)(O)O)[C@@H](O)[C@H]1O [α,βmethylenATP]
effect on [35S]GTPγS binding (agonist response) (hGPR17 [2]): No other nucleotides or nucleosides (i.e., ATP, ADP, 2-methyl-thio-ADP, UTP, α,βmethylenATP and guanosine, all tested at 10 and 50 μM concentrations) had any effect

Nc1nc2c(ncn2[C@@H]2O[C@H](CO)[C@@H](O)[C@H]2O)c(=O)[nH]1 [guanosine]
effect on [35S]GTPγS binding (agonist response) (hGPR17 [2]): No other nucleotides or nucleosides (i.e., ATP, ADP, 2-methyl-thio-ADP, UTP, α,βmethylenATP and guanosine, all tested at 10 and 50 μM concentrations) had any effect

oligo616: antisense oligonucleotide designed on the sequence of rGPR17 mRNA, SEQ ID NO: 1, unmodified (antisense AACTGTACCGGGAGAAGGCC; unmodified DNA; listed as Rattus norvegicus)
evolution of brain infarct size (MRI) [1]: markedly and significantly attenuated infarct size evolution
attenuation of rGPR17 mRNA / in vitro expression of rGPR17 (rGPR17 mRNA): able to attenuate rGPR17 mRNA

O=c1ccn([C@@H]2O[C@H](COP(=O)(O)OP(=O)(O)OP(=O)(O)O)[C@@H](O)[C@H]2O)c(=O)[nH]1 [UTP]
effect on [35S]GTPγS binding (agonist response) (hGPR17 [2]): No other nucleotides or nucleosides (i.e., ATP, ADP, 2-methyl-thio-ADP, UTP, α,βmethylenATP and guanosine, all tested at 10 and 50 μM concentrations) had any effect

Nc1ncnc2c1ncn2[C@@H]1O[C@H](COP(=O)(O)OP(=O)(O)O)[C@@H](O)[C@H]1O [ADP]
effect on [35S]GTPγS binding (agonist response) (hGPR17 [2]): No other nucleotides or nucleosides (i.e., ATP, ADP, 2-methyl-thio-ADP, UTP, α,βmethylenATP and guanosine, all tested at 10 and 50 μM concentrations) had any effect

CSc1nc(N)c2ncn([C@@H]3O[C@H](COP(=O)(O)OP(=O)(O)O)[C@@H](O)[C@H]3O)c2n1 [2-methyl-thio-ADP]
effect on [35S]GTPγS binding (agonist response) (hGPR17 [2]): No other nucleotides or nucleosides (i.e., ATP, ADP, 2-methyl-thio-ADP, UTP, α,βmethylenATP and guanosine, all tested at 10 and 50 μM concentrations) had any effect
